Data on 63 compounds can be found in a melting point compilation (Tetko et al.; mined from patent text by program, amines drawn as free bases though some values may be those of a salt).

The structures appear in SMILES notation.

One may read the melting point as the temperature, or range, at which the solid turns liquid. `CC(=O)Oc1cc(S(=O)(=O)Oc2ccc(C(=O)c3c(Cc4ccccc4)sc(C)c3C)cc2C2CCCC2)ccc1C(=O)O`: the melting point lay within 94 to 96 °C.

Consider `CCC(=O)Nc1ccc(Cl)c(-n2nc(CC)n(Cc3ccc(-c4ccccc4S(=O)(=O)NC(=O)OC(C)(C)C)cc3F)c2=O)c1`, for which the melting point fell in the range of 142 to 144 °C.

Compound `CC(C)(C)OC(=O)c1nc(-c2ccc(Cl)cc2)[nH]c1-c1ccncc1` registered a melting point of 206 to 207 °C.

The compound `O=C(NNc1ccc([N+](=O)[O-])cc1)c1ccc(Cl)cc1` returned a melting point of 246 to 248 °C.

In turn, `CC1(C)CC(=O)C2=C(C1)NC1=C(C(=O)CC(C)(C)C1)C2c1ccc(Cl)cc1Cl` came in with a melting point of over 300 °C.

Regarding `COc1cc2c(cc1Nc1ncc(Cl)c(Nc3ccccc3OC)n1)CCN(C(=O)CN(C)C)CC2`, the melting point lay in the range of 76 to 99 °C.

In turn, `CCOC(=O)C(CCCCCCl)=NO` gave a melting point of 36 to 38 °C.

As to `CCn1cc(C(=O)O)c(=O)c2cc(F)c(N3C[C@@H](N)[C@@H](C)C3)c(F)c21` (relative stereo), the melting point was 232 to 234 °C.

`N#CCc1cnc(Cl)c(Cl)c1`: the melting point fell in the range of 72 to 75 °C.

`COc1cccc2c1nc(C(F)F)n2-c1nc(N2CCOCC2)nc(N(C)c2cncnc2)n1` returned a melting point of 214 to 217 °C.

The compound `CN1CCN(C(=O)Nc2ccc3c(c2)NC(=O)/C3=C\c2ccc[nH]2)C1=O` yielded a melting point of 267 to 272 °C.

As to `COc1ccc(C(=O)c2cccc(CC(=O)O)c2)cc1`, the melting point is 138 to 140 °C.

The compound `CCn1c(-c2ccc(Cl)cc2)n[nH]c1=O` returned a melting point of 188 to 189 °C.

In turn, `CC(=O)SCC(C)C(=O)N(CC(=O)O)C1CCC1` (stereo not drawn) registered a melting point of 162 to 164 °C.

On to `CCCc1cc2c(c3ccc(OC)cc13)OCc1cc(OC)ccc1-2`, for which the melting point lay in the range of 88 to 90 °C.

In the case of `O=C(O)c1ccc(OCCCCO)cc1`, the melting point came to 124 °C.

As to `COc1cc2c(cc1OC)C(O)=C(c1cc(OCc3ccccc3)ccc1[N+](=O)[O-])C2=O`, the melting point was 120 °C.

`CON1CCC2(CC1)C(O)=C(c1c(C)cc(C)cc1C)C(=O)N2O` registered a melting point of 152 to 154 °C.

For `CN1CCN(C(=O)c2ccc(-c3cnc4c(c3)N(Cc3cc(F)ccc3F)C(=O)C(C)(C)N4)cc2)CC1`, the melting point is 204 to 206 °C.

`O=C(c1ccc([N+](=O)[O-])[nH]1)C(Cl)(Cl)Cl` displayed a melting point of 160 to 163 °C.

`CC(=O)OC(C)(C)c1nnc(-c2ccc3ncn(-c4ccc(OC(F)(F)F)cc4)c3c2)o1` came in with a melting point of 150 to 151 °C.

Regarding `Cc1nc2cc(Sc3cccc4cnccc34)c([N+](=O)[O-])cc2s1`, the melting point lay within 217 to 220 °C.

The compound `COC(=O)c1ccc(CN2CCN(c3nc(C)c(C(C)=O)s3)C2=O)cc1` yielded a melting point of 174 to 175 °C.

The compound `CN1CCN(c2cc3c(cc2Cl)c(=O)c(C(=O)O)cn3C)CC1` had a melting point of 286 °C.

The compound `CC1(C)CCC2=C(C1=O)C(c1ccc(F)c(Br)c1)C1=C(CCS1)N2` (stereo not drawn) showed a melting point of over 270 °C.

On to `O=Cc1ccc([N+](=O)[O-])cn1`, for which the melting point lay in the range of 66 to 67 °C.

Compound `COc1ccc(-c2c(=O)[nH]c3cc(Cl)c(Cl)cc3[n+]2[O-])cc1` had a melting point of 262 to 264 °C.

Consider `CC(C)(C)SC[C@@H]1NC(=O)[C@@H](CSSC[C@@H]2NC(=O)[C@@H](CSC(C)(C)C)NC2=O)NC1=O`, for which the melting point was found to be 278 °C.

`COc1cc(C(C)C(=O)NCC(COC(=O)C(C)(C)C)Cc2ccc(C(C)(C)C)cc2)ccc1NS(C)(=O)=O` (stereo not drawn) showed a melting point of 54 to 57 °C.

For the compound `CC(=O)SCC(Cc1ccccc1)C(=O)Nc1cc(C(=O)OCc2ccccc2)ccc1C` (stereo not drawn), the melting point fell in the range of 134 to 135 °C.

`CCN(CC)C(=O)C(C)Cc1cc(-c2ccccc2)cc2ccccc12` (stereo not drawn): the melting point amounted to 70 °C.

`Cc1c(C(N)=NO)ncn1-c1cccc(Oc2ccccc2)c1` registered a melting point of 196 to 198 °C.

Compound `CN1CC(=O)C(C)(C)CC1=O` registered a melting point of 52 to 54 °C.

On to `CC(C)(C(=O)NC(Nc1c(Nc2cccnc2)c(=O)c1=O)C(C)(C)C)c1ccccc1` (stereo not drawn), for which the melting point is 247 to 248 °C.

With `NC(=S)N1CCc2cccnc21`, the melting point came out at 173 °C.

The compound `COCC1CN(c2ccc3c(c2)CCC(CCC(F)(F)F)O3)C(=O)O1` (stereo not drawn) registered a melting point of 110 to 111 °C.

As for `Cc1cc2[nH]nnc2c(Br)c1C`, the melting point was 255 to 262 °C.

As to `CC1CC(=O)Oc2cc(O)ccc21` (stereo not drawn), the melting point was in the range of 109 to 110 °C.

In turn, `N#CC1C(=O)NC(=O)C(C#N)C12CCCCC2` (stereo not drawn) came in with a melting point of 202 to 210 °C.

Regarding `Cc1ccc(N2C(=O)C(O)=C(C(=O)c3ccc(C(C)C)cc3)C2c2ccc(Cn3cccn3)cc2)nn1` (stereo not drawn), the melting point is 263 °C.

Regarding `O=C(O)c1cc2ccccc2n1Cc1cccc(Cl)c1`, the melting point lay in the range of 188 to 189 °C.

With `N#Cc1cnc2cc(C#CCCCN3CCOCC3)ccc2c1Nc1ccc(Cl)cc1Cl`, the melting point was in the range of 131 to 133 °C.

As for `O=C(CCl)NOC(c1ccccc1)c1ccccc1`, the melting point lay in the range of 115 to 117 °C.

`O=c1n(CCCN2CC=C(c3c[nH]c4ccccc34)CC2)nc2ccccn12`: the melting point turned out to be 173 °C.

With `CCCc1c(OCC#CCSCCO)ccc(C(C)=O)c1O`, the melting point is 52 to 53 °C.

`N#CC1(C2(O)CCCCC2)Cc2cc3occc3cc21` (stereo not drawn): the melting point was in the range of 154 to 158 °C.

Compound `CC[C@H]1CNC[C@H]1NC(=O)OC(C)(C)C` showed a melting point of 63.5 to 65.5 °C.

`O=c1oc2ccccc2n1CCN1CCc2c([nH]c3ccccc23)C1` displayed a melting point of 135 to 137 °C.

On to `OCc1ccccc1-c1noc2ccccc12`, for which the melting point worked out at 55 °C.

`CC(=O)C1=C(O)C(=C(C)Nc2cccc(NC(=O)C(O)CO)c2)C(=O)OC1=O` (stereo not drawn) returned a melting point of 218 °C.

In turn, `CCC(=O)Nc1nc(-c2ccc(OC(F)F)cc2)cs1` registered a melting point of 186 to 188 °C.

`CC(=O)CCCCC(=O)Nc1ccc(CCC(=O)O)cc1`: the melting point was 148 to 160 °C.

Compound `Cc1cc(=O)[nH]c2ccc(OCCCN3CCC(NC(=O)c4ccccc4)CC3)cc12` displayed a melting point of 243 to 245 °C.

`CCCCCC1=CCC(c2cc(F)c(C#N)c(F)c2)C=C1` (stereo not drawn) displayed a melting point of 59 °C.

`CCOC(=O)Nc1ccc2c(c1)CC[C@H](CCC(F)(F)F)O2` had a melting point of 88 °C.

The compound `CC(=O)Nc1cc(C)cc(CCC(=O)O)n1` returned a melting point of 202 °C.

In turn, `COC1=C(OC)C(=O)C(CCCCCCCCCC(=O)N[C@@H](CCCCN)C(=O)O)=C(C)C1=O` yielded a melting point of 107 °C.

Regarding `COc1ccc(-c2cn(-c3cc4c(=O)n(NS(C)(=O)=O)c(=O)[nH]c4cc3C(F)(F)F)cn2)cc1`, the melting point fell in the range of 293 to 294 °C.

`Cc1cc2c(cc1C(F)(F)F)N(Cc1ccc(C(=O)O)cc1)CCC[C@@H]2N(Cc1cc(C(F)(F)F)cc(C(F)(F)F)c1)c1nnn(C)n1` gave a melting point of 95 to 98 °C.

`C=CCNc1c(C(=O)OCC)cnc2cn(C(C)(C)OC)nc12` had a melting point of 102 to 103 °C.

`COc1cccc([C@H]2O[C@H](CC(=O)N[C@H](C)C(=O)OC(C)(C)C)C(=O)N(CC(C)(C)C)c3ccc(Cl)cc32)c1OC`: the melting point was 127 to 128 °C.

`Nc1ncc(-c2ccc(=O)[nH]n2)c(-c2ccccc2)n1`: the melting point is over 280 °C.

For `CCCCCCCCCCCCCCOC(=O)NO`, the melting point lay within 64 to 66 °C.
